Measured values published in patent US12414948B2, “Methods” (INTRA-CELLULAR THERAPIES, INC., priority 2022, dated 2025).

Legend:
[1] = system: PBMCs from patients with schizophrenia and co-morbid depression; test: Post-hoc analysis of inflammatory biomarkers in PBMCs, phase 3 clinical trial; format: in vivo, human
Method: A randomized, double-blind, placebo-controlled, phase 3 clinical trial was conducted with 450 patients with schizophrenia, aged 18 to 60 years, who were experiencing an acute exacerbation of psychosis. Patients were included if they were experiencing an acute exacerbation of psychosis, defined as a total score on the Brief Psychiatric Rating Scale of […] or higher, with a score of 4 or higher on 2 or more positive symptoms, and onset of the acute episode within 4 weeks of screening. Patients were required to have a score of 4 or higher, indicating moderate to severe disease severity, on the Clinical Global Impression-Severity of Illness (CGI-S) at screening and baseline. Severity of illness was confirmed at baseline by a Positive and Negative Syndrome Scale (PANSS) total score of 70 or higher, indicating moderate to extreme symptoms of schizophrenia. A subgroup of these patients experienced co-morbid depression symptoms at baseline (defined as having a Calgary Depression Scale for Schizophrenia (CDSS) score greater than 6 at baseline). Full details of the clinical study were reported in Correll et al., JAMA Psychiatry, 77(4): 349-358 (2020).
Using blood samples stored from the study, a post-hoc analysis of inflammatory biomarkers in PBMCs from the patients with schizophrenia and co-morbid depression is conducted. […] Day 0 samples are available for 20 patients, while day 28 samples are available only for 18 patients. Mean baseline CDSS is 10.0, and mean baseline PANSS total score is 88.7 in the selected patients.
Samples were processed to isolate PBMC according to standard procedures using the Ficoll-Paque method. Statistical analysis was performed using the paired t-test, two-tailed. Samples were tested for C-reactive protein (CRP), serum amyloid A (SAA), soluble CAM-1, soluble VCAM-1, IL-1β, TNF-αL, IL-6, IL-10, IL-2, IL-8, IL-13, and IFN-γ. ICAM-1 and VCAM-1 are expressed by the vascular endothelium, macrophages, and lymphocytes. Upon cytokine stimulation, their concentrations greatly increase. ICAM-1 can be induced by IL-1β and TNF. ICAM and VCAM proteins may also be involved in pathogen transit into CNS.
The results are shown in the table below (biomarker levels expressed in ng/mL; some values of N are less than the patient totals due to samples with levels of biomarker below the minimum for quantification): […]

[2] = system: blood-brain barrier (NaFl brain penetration); test: BBB permeability assay (sodium fluorescein), LPS paradigm; format: in vivo, mouse; settings: mice, 2 h, label LPS = LPS alone, label Luma = Luma 3 mg/kg IP co-injected with LPS
Method: BBB Permeability Assay. […] Mice are perfused with 15 ml 1×PBS solution.
Systemic inflammation is associated with increased permeability of the BBB, and this has been discussed as a potential factor underlying depression pathophysiology. […] Forty-five minutes before sample collection, mice receive NaFl injections (200 μl of 10% solution, IP) (Table 3).

[3] = Day 28 of 60 mg lumateperone once daily, PBMC, schizophrenia patients with co-morbid depression

Molecule	CRP, Median [1, 3] [ng/mL]	IFN-γ, Average [1, 3] [ng/mL]	IFN-γ, Median [1, 3] [ng/mL]	IL-1β, Median [1, 3] [ng/mL]	IL-2, Average [1, 3] [ng/mL]	IL-2, Median [1, 3] [ng/mL]	IL-6, Average [1, 3] [ng/mL]	IL-6, Median [1, 3] [ng/mL]	IL-8, Median [1, 3] [ng/mL]	IL-10, Median [1, 3] [ng/mL]	TNF-α, Average [1, 3] [ng/mL]	TNF-α, Median [1, 3] [ng/mL]	sVCAM-1, Median [1, 3] [ng/mL]	Levels of inflammatory biomarkers in blood cells (PBMCs) ([1]; after 28 days of treatment, versus baseline, patients with schizophrenia and co-morbid depression)	NaFl brain penetration (cerebrum/serum ratio) [2]
CN1CCN2c3c(cccc31)[C@@H]1CN(CCCC(=O)c3ccc(F)cc3)CC[C@@H]12 [Luma, lumateperone]	38.0	0.86	0.71	0.74	0.37	0.25	0.55	0.32	44.0	0.21	0.83	0.43	42.0	significantly reduced	
lipopolysaccharide [LPS, reference compound]															1.406 ± 0.0873 arbitrary units normalized to control
